The values that follow come from US9481659B2, “Selective heterocyclic sphingosine 1 phosphate receptor modulators” (Celgene International II SÀRL, priority 2011, dated 2016).

Structures can show the parent of a compound that is named as a salt. Where only a bound is given, the exact number is not on record here.

In the assay the target is S1P1/EDG1 (Homo sapiens, UniProt P21453). Description: S1P1 CRE-bla CHOK1 reporter assay, inhibition of Forskolin induced cAMP. Type of assay: cell-based. To be noted: agonist activity range; S1P1 CRE-bla CHOK1 cells, 2 μM Forskolin; read-out: S1P1 ACTIVITY
On the procedure:
Generation of S1P1-Mediated Inhibition of cAMP Reporter Assay
A mammalian expression plasmid containing S1P1/EDG1 cloned into pcDNA3.1 was purchased from Missouri S&T cDNA Resource Centre. […] S1P1/pcDNA3.1 was transfected into the CRE-bla CHO K1 (Invitrogen) cell line, and stable single cell clones were selected using standard techniques.
S1P1 CRE-Bla CHOK1 Reporter Assay—Characterization of S1P1 Agonists
Cells were seeded into 384-well black wall/clear bottom plates at 10^4 cells/well/19.5 μl assay media (DMEM-phenol free, 0.5% charcoal/dextran stripped serum, 2 mM glutamine, 0.1 mM NEAA, 1 mM Na-Pyruvate, 25 mM Hepes) and incubated for 18 hrs at 37° C. in 5% CO2. Dose response curves (10-point) were generated in 10 mM Hepes, 0.1% Pluronic F127, in the presence of Forskolin. Cells were treated with 0.5 μl compound in the presence of 2 μM Forskolin for 4 hrs at 37° C. The FRET-based β-lactamase fluorescent substrate (LiveBLAzer™-FRET B/G Loading Kit CC4-AM; Invitrogen) was prepared according to manufacturer's directions, and incubated with cells for 2 hrs at room temperature.

Chain of S1P1/EDG1 (P21453 whole entry): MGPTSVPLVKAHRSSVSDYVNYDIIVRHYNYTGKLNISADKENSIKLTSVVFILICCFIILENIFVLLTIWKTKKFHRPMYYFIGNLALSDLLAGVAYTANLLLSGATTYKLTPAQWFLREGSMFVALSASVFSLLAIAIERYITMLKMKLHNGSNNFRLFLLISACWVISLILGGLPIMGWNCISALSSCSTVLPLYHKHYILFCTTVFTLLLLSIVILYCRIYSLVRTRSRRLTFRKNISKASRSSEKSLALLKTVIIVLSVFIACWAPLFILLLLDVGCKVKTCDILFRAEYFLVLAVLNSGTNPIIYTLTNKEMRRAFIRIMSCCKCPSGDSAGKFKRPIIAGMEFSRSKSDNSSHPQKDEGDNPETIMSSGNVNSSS

Take `CC(C)Oc1ccc(-c2nnc(-c3cccc4c3CCC4NS(=O)(=O)CCN3CC[C@@H](O)C3)s2)cc1C#N` (stereo in doubt) [Compound 37, N—((S)-4-(5-(3-cyano-4-isopropoxyphenyl)-1,3,4-thiadiazol-2-yl)-2,3-dihydro-1H-inden-1-yl)-2-((R)-3-hydroxypyrrolidin-1-yl)ethanesulfonamide]: the EC50 is 0.5 to 5 nM.

Turning to `CC(C)Oc1ccc(-c2nnc(-c3cccc4c3CCC4NS(=O)(=O)CCN3CC[C@@H](O)C3)s2)cc1C#N` (stereo in doubt) [Compound 38, N—((R)-4-(5-(3-cyano-4-isopropoxyphenyl)-1,3,4-thiadiazol-2-yl)-2,3-dihydro-1H-inden-1-yl)-2-((R)-3-hydroxypyrrolidin-1-yl)ethanesulfonamide], the EC50 is 0.5 to 5 nM.

As to `CC(C)Oc1ccc(-c2nnc(-c3cccc4c3CC[C@H]4O)s2)cc1C#N` [Compound 2, (R)-5-(5-(1-hydroxy-2,3-dihydro-1H-inden-4-yl)-1,3,4-thiadiazol-2-yl)-2-isopropoxybenzonitrile], the EC50 is 0.05 to 0.5 nM.

Regarding `CC(C)Oc1ccc(-c2nnc(-c3cccc4c3CC[C@H]4N)s2)cc1C#N` [Compound 5, (R)-5-(5-(1-amino-2,3-dihydro-1H-inden-4-yl)-1,3,4-thiadiazol-2-yl)-2isopropoxybenzonitrile hydrochloride], the EC50 lay within 0.5 to 5 nM.

As for `CC(C)Oc1ccc(-c2nnc(-c3cccc4c3CC[C@H]4NC(=O)CN)s2)cc1C#N` [Compound 9], the EC50 is 0.05 to 0.5 nM.

On to `CC(C)Oc1ccc(-c2nnc(-c3cccc4c3CC[C@H]4NCCO)s2)cc1C#N` [Compound 17, (R)-5-(5-(1-((2-hydroxyethyl)amino)-2,3-dihydro-1H-inden-4-yl)-1,3,4-thiadiazol-2-yl)-2-isopropoxybenzonitrile], for which the EC50 lay within 0.05 to 0.5 nM.

In the case of `COCCN[C@@H]1CCc2c(-c3nnc(-c4ccc(OC(C)C)c(C#N)c4)s3)cccc21` [Compound 19], the EC50 is 0.5 to 5 nM.

On to `CC(C)Oc1ccc(-c2nnc(-c3cccc4c3CC[C@H]4NCC(=O)N(C)C)s2)cc1C#N` [Compound 22, (R)-2-((4-(5-(3-cyano-4-isopropoxyphenyl)-1,3,4-thiadiazol-2-yl)-2,3-dihydro-1H-inden-1-yl)amino)-N,N-dimethylacetamide hydrochloride], for which the EC50 lay in the range of 0.05 to 0.5 nM.

For the compound `CC(C)Oc1ccc(-c2nnc(-c3cccc4c3CC[C@H]4NCC(=O)N3CCOCC3)s2)cc1C#N` [Compound 25], the EC50 fell in the range of 0.05 to 0.5 nM.

Regarding `CC(C)Oc1ccc(-c2nnc(-c3cccc4c3CC[C@H]4NCC(=O)O)s2)cc1C#N` [Compound 27, (R)-2-((4-(5-(3-cyano-4-isopropoxyphenyl)-1,3,4-thiadiazol-2-yl)-2,3-dihydro-1H-inden-1-yl)amino)acetic acid], the EC50 was in the range of 0.05 to 0.5 nM.

On to `CC(C)Oc1ccc(-c2nnc(-c3cccc4c3CC[C@H]4NCc3ncc[nH]3)s2)cc1C#N` [Compound 29, (R)-5-(5-(1-(((1H-imidazol-2-yl)methyl)amino)-2,3-dihydro-1H-inden-4-yl)-1,3,4-thiadiazol-2-yl)-2-isopropoxybenzonitrile], for which the EC50 lay within 0.05 to 0.5 nM.

Consider `CC(C)Oc1ccc(-c2nnc(-c3cccc4c3CC[C@H]4NCCS(C)(=O)=O)s2)cc1C#N` [Compound 32, (R)-2-isopropoxy-5-(5-(1-((2-(methylsulfonyl)ethyl)amino)-2,3-dihydro-1H-inden-4-yl)-1,3,4-thiadiazol-2-yl)benzonitrile], for which the EC50 is less than 0.05 nM.

`CC(C)Oc1ccc(-c2nnc(-c3cccc4c3CC[C@H]4NS(C)(=O)=O)s2)cc1C#N` [Compound 34, (R)—N-(4-(5-(3-cyano-4-isopropoxyphenyl)-1,3,4-thiadiazol-2-yl)-2,3-dihydro-1H-inden-1-yl)methanesulfonamide]: the EC50 was in the range of 0.05 to 0.5 nM.

Regarding `CC(C)Oc1ccc(-c2nnc(-c3cccc4c3CC[C@H]4NCC(=O)N3CCCC3)s2)cc1C#N` [Compound 39], the EC50 is 0.05 to 0.5 nM.

For the compound `CC(C)Oc1ccc(-c2nnc(-c3cccc4c3CC[C@H]4NS(=O)(=O)CC(=O)O)s2)cc1C#N` [Compound 41, (R)-2-(N-(4-(5-(3-cyano-4-isopropoxyphenyl)-1,3,4-thiadiazol-2-yl)-2,3-dihydro-1H-inden-1-yl)sulfamoyl)acetic acid], the EC50 was less than 0.05 nM.

As to `CC(C)Oc1ccc(-c2nnc(-c3cccc4c3CC[C@H]4NS(N)(=O)=O)s2)cc1C#N` [Compound 48, (R)—N-(4-(5-(3-cyano-4-isopropoxyphenyl)-1,3,4-thiadiazol-2-yl)-2,3-dihydro-1H-inden-1-yl) sulfamide], the EC50 is less than 0.05 nM.

In the case of `CC(C)Oc1ccc(-c2nnc(-c3cccc4c3CC[C@H]4NC(=O)CN(C)C)s2)cc1C#N` [Compound 49], the EC50 lay in the range of 0.5 to 5 nM.

In the case of `CC(C)Oc1ccc(-c2nnc(-c3cccc4c3CC[C@H]4NC(=O)N3CC(C(=O)O)C3)s2)cc1C#N` [Compound 50], the EC50 lay in the range of 0.05 to 0.5 nM.

As to `CC(C)Oc1ccc(-c2nnc(-c3cccc4c3CC[C@H]4NC(=O)N3CC[C@H](O)C3)s2)cc1C#N` [Compound 54], the EC50 was 0.05 to 0.5 nM.

Regarding `CC(C)Oc1ccc(-c2nnc(-c3cccc4c3CC[C@H]4NC(=O)N3CCC[C@H](O)C3)s2)cc1C#N` [Compound 61], the EC50 fell in the range of 0.05 to 0.5 nM.

Consider `CC(C)Oc1ccc(-c2nnc(-c3cccc4c3CC[C@H]4NC(=O)N3CCC(O)CC3)s2)cc1C#N` [Compound 62], for which the EC50 lay in the range of 0.5 to 5 nM.

As to `CC(C)Oc1ccc(-c2nnc(-c3cccc4c3CC[C@H]4NC(=O)N3CC(O)C3)s2)cc1C#N` [Compound 65], the EC50 was 0.05 to 0.5 nM.

Consider `COC(=O)N[C@@H]1CCc2c(-c3nnc(-c4ccc(OC(C)C)c(C#N)c4)s3)cccc21` [Compound 68], for which the EC50 was 0.05 to 0.5 nM.

As to `CC(C)Oc1ccc(-c2ncc(-c3cccc4c3CC[C@H]4O)s2)cc1C#N` [Compound 69, (R)-5-(5-(1-hydroxy-2,3-dihydro-1H-inden-4-yl)thiazol-2-yl)-2-isopropoxy benzonitrile], the EC50 was 0.05 to 0.5 nM.

`CC(C)Oc1ccc(-c2ncc(-c3cccc4c3CC[C@H]4NC(=O)CO)s2)cc1C#N` [Compound 74]: the EC50 lay in the range of 0.05 to 0.5 nM.

In the case of `COCC(=O)N[C@@H]1CCc2c(-c3cnc(-c4ccc(OC(C)C)c(C#N)c4)s3)cccc21` [Compound 75], the EC50 is 0.05 to 0.5 nM.

On to `CC(C)Oc1ccc(-c2ncc(-c3cccc4c3CC[C@H]4NC(=O)CN)s2)cc1C#N` [Compound 77], for which the EC50 was in the range of 0.05 to 0.5 nM.

Consider `CC(C)Oc1ccc(-c2ncc(-c3cccc4c3CC[C@H]4NC(=O)[C@@H](N)CO)s2)cc1C#N` [Compound 79], for which the EC50 was in the range of 0.05 to 0.5 nM.

For `CC(C)Oc1ccc(-c2ncc(-c3cccc4c3CC[C@H]4NC(=O)[C@H](N)CO)s2)cc1C#N` [Compound 80], the EC50 is 0.05 to 0.5 nM.

For `CC(C)Oc1ccc(-c2ncc(-c3cccc4c3CC[C@H]4NC(=O)CN(C)C)s2)cc1C#N` [Compound 81], the EC50 was in the range of 0.5 to 5 nM.

As to `CC(C)Oc1ccc(-c2ncc(-c3cccc4c3CC[C@H]4NC(=O)Cc3ccccc3)s2)cc1C#N` [Compound 83], the EC50 was more than 5 nM.

For `CC(C)Oc1ccc(-c2ncc(-c3cccc4c3CC[C@H]4NC(=O)CN3CCCC3)s2)cc1C#N` [Compound 85], the EC50 is more than 5 nM.

For `CC(=O)N[C@@H]1CCc2c(-c3cnc(-c4ccc(OC(C)C)c(C#N)c4)s3)cccc21` [Compound 87], the EC50 fell in the range of 0.05 to 0.5 nM.

Take `COC(=O)N[C@@H]1CCc2c(-c3cnc(-c4ccc(OC(C)C)c(C#N)c4)s3)cccc21` [Compound 89]: the EC50 was 0.5 to 5 nM.

In the case of `CC(C)Oc1ccc(-c2ncc(-c3cccc4c3CC[C@H]4NCCO)s2)cc1C#N` [Compound 91, (R)-5-(5-(1-((2-hydroxyethyl)amino)-2,3-dihydro-1H-inden-4-yl)thiazol-2-yl)-2-isopropoxybenzonitrile], the EC50 fell in the range of 0.5 to 5 nM.

As for `COCCN[C@@H]1CCc2c(-c3cnc(-c4ccc(OC(C)C)c(C#N)c4)s3)cccc21` [Compound 93], the EC50 fell in the range of 0.5 to 5 nM.

For `CC(C)Oc1ccc(-c2ncc(-c3cccc4c3CC[C@H]4NCC(=O)O)s2)cc1C#N` [Compound 96, (R)-2-((4-(2-(3-cyano-4-isopropoxyphenyl)thiazol-5-yl)-2,3-dihydro-1H-inden-1-yl)amino)acetic acid], the EC50 lay within 0.05 to 0.5 nM.

Take `CC(C)Oc1ccc(-c2ncc(-c3cccc4c3CC[C@H]4NCC(=O)N3CCCC3)s2)cc1C#N` [Compound 100]: the EC50 was in the range of 0.05 to 0.5 nM.

With `CC(C)Oc1ccc(-c2ncc(-c3cccc4c3CC[C@H]4NCC(=O)N3CC[C@H](O)C3)s2)cc1C#N` [Compound 102, 5-(5-((R)-1-((2-((S)-3-hydroxypyrrolidin-1-yl)-2-oxoethyl)amino)-2,3-dihydro-1H-inden-4-yl)thiazol-2-yl)-2-isopropoxybenzonitrile hydrochloride], the EC50 fell in the range of 0.05 to 0.5 nM.

With `CC(C)Oc1ccc(-c2ncc(-c3cccc4c3CC[C@H]4NCC(=O)N3CC[C@@H](O)C3)s2)cc1C#N` [Compound 103], the EC50 lay within 0.05 to 0.5 nM.

In the case of `CC(C)Oc1ccc(-c2ncc(-c3cccc4c3CC[C@@H]4NCC(=O)N3CC[C@@H](O)C3)s2)cc1C#N` [Compound 105], the EC50 was more than 5 nM.

With `CC(C)Oc1ccc(-c2ncc(-c3cccc4c3CC[C@H]4NCC(=O)N3CCNCC3)s2)cc1C#N` [Compound 107], the EC50 was 0.5 to 5 nM.

With `CC(C)Oc1ccc(-c2ncc(-c3cccc4c3CC[C@H]4NCc3ncc[nH]3)s2)cc1C#N` [Compound 109, (R)-5-(5-(1-(((1H-imidazol-2-yl)methyl)amino)-2,3-dihydro-1H-inden-4-yl)thiazol-2-yl)-2-isopropoxybenzonitrile], the EC50 lay within 0.5 to 5 nM.
